US7642251B2, “Compounds for the treatment of hepatitis C” (Bristol-Myers Squibb Company, priority 2007, dated 2010)
Where two headings read alike, the source gives them in different places.

Assays:
HCV replicon cells = test: HCV replicon FRET assay; type: cell-based; conditions: Hepatitis C virus
Excerpt: FRET Assay Preparation. To perform the HCV FRET screening assay, 96-well cell culture plates were used. The FRET peptide (Anaspec, Inc.) (Taliani et al., Anal. Biochem. 1996, 240, 60-67) contains a fluorescence donor, EDANS, near one end of the peptide and an acceptor, DABCYL, near the other end. The fluorescence of the peptide is quenched by […] resonance energy transfer (RET) between the donor and the acceptor, but as the NS3 protease cleaves the peptide the products are released from RET quenching and the fluorescence of the donor becomes apparent. The assay reagent was made as follows: 5× cell Luciferase cell culture lysis reagent from Promega (#E153A) diluted to 1× with dH2O, NaCl added to 150 mM final, the FRET peptide diluted to 20 μM final from a 2 mM stock.
To prepare plates, HCV replicon cells, with or without a Renilla luciferase reporter gene, were trypsinized and placed into each well of a 96-well plate with titrated test compounds added in columns 3 through 12; columns 1 and 2 contained a control compound (HCV protease inhibitor), and the bottom row contained cells without compound. The plates were then placed in a CO2 incubator at 37° C.
Assays. Subsequent to addition of the test compounds described above (FRET Assay Preparation), at various times the plate was removed and Alamar blue solution (Trek Diagnostics, #00-100) was added per well as a measure of cellular toxicity. After reading in a Cytoflour 4000 instrument (PE Biosystems), plates were rinsed with PBS and then used for FRET assay by the addition of 30 ul of the FRET peptide assay reagent described above (FRET Assay Preparation) per well. The plate was then placed into the Cytoflour 4000 instrument which had been set to 340 excite/490 emission, automatic mode for 20 cycles and the plate read in a kinetic mode. Typically, the signal to noise using an endpoint analysis after the reads was at least three-fold. Alternatively, after Alamar blue reading, plates were rinsed with PBS, 50 ul of DMEM (high glucose) without phenol red was added and plates were then used for luciferase assay using the Promega Dual-Glo Luciferase Assay System.
Compound analysis was determined by quantification of the relative HCV replicon inhibition and the relative cytotoxicity values. To calculate cytoxicity values, the average Alamar Blue fluorescence signals from the control wells were set as 100% non-toxic. The individual signals in each of the compound test wells were then divided by the average control signal and multiplied by 100% to determine […]. To calculate the HCV replicon inhibition values, an average background value was obtained from the two wells containing the highest amount of HCV protease inhibitor at the end of the assay period. These numbers were similar to those obtained from naïve Huh-7 cells.
The background numbers were then subtracted from the average signal obtained from the control wells and this number was used as 100% activity. The individual signals in each of the compound test wells were then divided by the averaged control values after background subtraction and multiplied by 100% to determine percent activity. EC50 values for a protease inhibitor titration were calculated as the concentration which caused a 50% reduction in FRET or luciferase activity. The two numbers generated for the compound plate, percent cytoxicity and percent activity were used to determine compounds of interest for further analysis.

HCV NS5B = target: T1, HCV NS5B (Hepatitis C virus genotype 1b, UniProt Q9WMX2); test: Modified HCV NS5B RdRp enzyme assay (preincubation protocol); type: biochemical
T1 construct: The cDNA encoding the NS5B protein of HCV, genotype 1b; made in house; host or cells: E. coli BL21(DE3)
Description: HCV NS5B RdRp cloning, expression, and purification. The cDNA encoding the NS5B protein of HCV, genotype 1b, was cloned into the pET21a expression vector. The protein was expressed with an 18 amino acid C-terminal truncation to enhance the solubility. The E. coli competent cell line BL21(DE3) was used for expression of the protein. Cultures were grown at 37° C. for ˜4 hours until the cultures reached an optical density of 2.0 at 600 nm. The cultures were cooled to 20° C. and induced with 1 mM IPTG. Fresh ampicillin was added to a final concentration of 50 μg/ml and the cells were grown overnight at 20° C.
Cell pellets (3 L) were lysed for purification to yield 15-24 mgs of purified NS5B. The lysis buffer consisted of 20 mM Tris-HCl, pH 7.4, 500 mM NaCl, 0.5% triton X-100, 1 mM DTT, 1 mM EDTA, 20% glycerol, 0.5 mg/ml lysozyme, 10 mM MgCl2, 15 ug/ml deoxyribonuclease I, and Complete™ protease inhibitor tablets (Roche). After addition of the lysis buffer, frozen cell pellets were resuspended using a tissue homogenizer. To reduce the viscosity of the sample, aliquots of the lysate were sonicated on ice using a microtip attached to a Branson sonicator. The sonicated lysate was centrifuged at 100,000×g for 1 hr at 4° C. and filtered through a 0.2 μm filter unit (Corning).
The protein was purified using three sequential chromatography steps: Heparin sepharose CL-6B, polyU sepharose 4B, and Hitrap SP sepharose (Pharmacia). The chromatography buffers were identical to the lysis buffer but contained no lysozyme, deoxyribonuclease I, MgCl2 or protease inhibitor and the NaCl concentration of the buffer was adjusted according to the requirements for charging the protein onto the column. Each column was eluted with a NaCl gradient which varied in length from 5-50 column volumes depending on the column type. After the final chromatography step, the resulting purity of the enzyme is >90% based on SDS-PAGE analysis. The enzyme was aliquoted and stored at −80° C.
Standard HCV NS5B RdRp enzyme assay. HCV RdRp genotype 1b assays were run in a final volume of 60 μl in 96 well plates (Costar 3912). The assay buffer is composed of 20 mM Hepes, pH 7.5, 2.5 mM KCl, 2.5 mM MgCl2, 1 mM DTT, 1.6 U RNAse inhibitor (Promega N2515), 0.1 mg/ml BSA (Promega R3961), and 2% glycerol. All compounds were serially diluted (3-fold) in DMSO and diluted further in water such that the final concentration of DMSO in the assay was 2%. HCV RdRp genotype 1b enzyme was used at a final concentration of 28 nM. A polyA template was used at 6 nM, and a biotinylated oligo-dT12 primer was used at 180 nM final concentration. Template was obtained commercially (Amersham 27-4110). Biotinylated primer was prepared by Sigma Genosys. 3H-UTP was used at 0.6 μCi (0.29 μM total UTP). Reactions were initiated by the addition of enzyme, incubated at 30° C. for 60 min, and stopped by adding 25 μl of 50 mM EDTA containing SPA beads (4 μg/μl, Amersham RPNQ 0007). Plates were read on a Packard Top Count NXT after >1 hr incubation at room temperature.
Modified HCV NS5B RdRp enzyme assay. A modified enzyme assay was performed essentially as described for the standard enzyme assay except for the following: The biotinylated oligo dT12 primer was precaptured on streptavidin-coated SPA beads by mixing primer and beads in assay buffer and incubating at room temperature for one hour. Unbound primer was removed after centrifugation. The primer-bound beads were resuspended in 20 mM Hepes buffer, pH 7.5 and used in the assay at final concentrations of 20 nM primer and 0.67 μg/μl beads. Order of addition in the assay: enzyme (14 nM) was added to diluted compound followed by the addition of a mixture of template (0.2 nM), 3H-UTP (0.6 μCi, 0.29 μM), and primer-bound beads, to initiate the reaction; concentrations given are final. Reactions were allowed to proceed for 4 hours at 30° C.
IC50 values for compounds were determined using seven different [I]. […]

[1] = preincubation protocol, read-out: IC50

T1 sequence (Q9WMX2 2420-2992): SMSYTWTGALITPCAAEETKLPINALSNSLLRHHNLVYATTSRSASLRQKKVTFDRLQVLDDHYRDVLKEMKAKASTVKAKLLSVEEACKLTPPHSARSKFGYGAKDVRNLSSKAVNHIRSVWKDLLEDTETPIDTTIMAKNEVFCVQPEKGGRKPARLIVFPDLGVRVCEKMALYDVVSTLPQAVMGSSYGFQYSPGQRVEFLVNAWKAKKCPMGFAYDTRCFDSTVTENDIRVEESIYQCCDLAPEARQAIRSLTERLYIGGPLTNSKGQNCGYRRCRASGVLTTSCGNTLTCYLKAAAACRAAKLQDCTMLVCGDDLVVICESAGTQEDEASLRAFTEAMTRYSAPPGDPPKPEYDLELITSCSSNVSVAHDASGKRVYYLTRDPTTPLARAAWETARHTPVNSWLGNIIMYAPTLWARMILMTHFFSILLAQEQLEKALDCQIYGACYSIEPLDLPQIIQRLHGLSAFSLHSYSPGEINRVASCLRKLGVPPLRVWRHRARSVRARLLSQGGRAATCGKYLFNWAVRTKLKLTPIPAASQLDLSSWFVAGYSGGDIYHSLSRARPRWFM

SMILES | EC50 (HCV replicon cells; FRET assay, read-out: EC50) [nM] | IC50 (HCV NS5B; [1]) [nM] | EC50 (HCV replicon cells) [nM] | IC50 (HCV NS5B) [nM]
COc1ccc2c(c1)C=C(c1ccccc1OC(F)(F)C(F)(F)F)Cn1c-2c(C2CCCCC2)c2ccc(C(=O)NS(=O)(=O)C(C)C)cc21 | > 500 | 4.58 to 500 |  | 
COc1ccc2c(c1)C=C(c1ccccc1C(=O)N1C3CCC1CN(C)C3)Cn1c-2c(C2CCCCC2)c2ccc(C(=O)NS(=O)(=O)C(C)C)cc21 |  |  | 4.58 to 500 | 4.58 to 500
COc1ccc2c(c1)C=C(c1ccc(N3CCOCC3)nn1)Cn1c-2c(C2CCCCC2)c2ccc(C(=O)NS(=O)(=O)N(C)C)cc21 | > 500 | 4.58 to 500 |  | 
COc1ccc2c(c1)C=C(c1cccc(OCCN(C)C)c1)Cn1c-2c(C2CCCCC2)c2ccc(C(=O)NS(=O)(=O)C(C)C)cc21 | > 500 | 4.58 to 500 |  | 
COc1ccc2c(c1)C=C(c1cccc(OCCN(C)C)c1)Cn1c-2c(C2CCCCC2)c2ccc(C(=O)O)cc21 | > 500 | 4.58 to 500 |  | 
COc1ccc2c(c1)C=C(c1cnc(OC)c3[nH]ccc13)Cn1c-2c(C2CCCCC2)c2ccc(C(=O)O)cc21 | 4.58 to 500 | 4.58 to 500 |  | 
COc1ccc2c(c1)C=C(c1cccc(N3CCOCC3)n1)Cn1c-2c(C2CCCCC2)c2ccc(C(=O)O)cc21 | > 500 | > 500 |  | 
COc1ccc2c(c1)C=C(c1ncccc1C(=O)N1CCC(O)CC1)Cn1c-2c(C2CCCCC2)c2ccc(C(=O)NS(=O)(=O)N(C)C)cc21 | 4.58 to 500 | 4.58 to 500 |  | 
COc1ccc2c(c1)C=C(c1ccccc1)Cn1c-2c(C2CCCCC2)c2ccc(C(=O)NS(=O)(=O)N(C)C)cc21 | > 500 | 4.58 to 500 |  | 
COc1ccc2c(c1)C=C(c1ncccc1S(=O)(=O)N1C3CCC1CN(C)C3)Cn1c-2c(C2CCCCC2)c2ccc(C(=O)NS(=O)(=O)N(C)C)cc21 |  |  | 4.58 to 500 | 4.58 to 500
COc1ccc2c(c1)C=C(c1ncccc1C(=O)N1C3CCC1CN(C)C3)Cn1c-2c(C2CCCCC2)c2ccc(C(=O)NS(=O)(=O)N(C)C)cc21 |  |  | 4.58 to 500 | 4.58 to 500
COc1ccc2c(c1)C=C(c1cccc3c1OC(F)(F)O3)Cn1c-2c(C2CCCCC2)c2ccc(C(=O)O)cc21 | > 500 | 4.58 to 500 |  | 
COc1ccc2c(c1)C=C(c1nccc(C(=O)N3CCOCC3)n1)Cn1c-2c(C2CCCCC2)c2ccc(C(=O)NS(=O)(=O)N(C)C)cc21 | 4.58 to 500 | 4.58 to 500 |  | 
COc1ccc2c(c1)C=C(c1ccccc1OC(F)F)Cn1c-2c(C2CCCCC2)c2ccc(C(=O)NS(=O)(=O)C(C)C)cc21 | > 500 | 4.58 to 500 |  | 
COc1ccc2c(c1)CC(c1cccc(N3CCOCC3)n1)Cn1c-2c(C2CCCCC2)c2ccc(C(=O)NS(=O)(=O)N(C)C)cc21 (stereo not shown) | 4.58 to 500 | 4.58 to 500 |  | 
COc1ccc2c(c1)C=C(c1cc(C(=O)N3CCOCC3)ccn1)Cn1c-2c(C2CCCCC2)c2ccc(C(=O)O)cc21 | > 500 | > 500 |  | 
COc1ccc2c(c1)C=C(c1ncccc1C(=O)N(C)C)Cn1c-2c(C2CCCCC2)c2ccc(C(=O)NS(=O)(=O)N(C)C)cc21 | 4.58 to 500 | 4.58 to 500 |  | 
COc1ccc2c(c1)C=C(c1ncccc1N1CC(C)(C)C1=O)Cn1c-2c(C2CCCCC2)c2ccc(C(=O)NS(=O)(=O)N(C)C)cc21 | 4.58 to 500 | 4.58 to 500 |  | 
COc1ccc2c(c1)C=C(c1ccccc1C(=O)N1C3CCC1CN(C)C3)Cn1c-2c(C2CCCCC2)c2ccc(C(=O)O)cc21 |  |  | 4.58 to 500 | 4.58 to 500
COc1ccc2c(c1)C=C(c1ncccc1C(=O)N1CCCC1)Cn1c-2c(C2CCCCC2)c2ccc(C(=O)NS(=O)(=O)N(C)C)cc21 | 4.58 to 500 | 4.58 to 500 |  | 
COc1ccc2c(c1)C=C(c1nccc(N(C)C)n1)Cn1c-2c(C2CCCCC2)c2ccc(C(=O)O)cc21 | > 500 | > 500 |  | 
COc1ccc2c(c1)CC(c1ncccc1C(=O)N1CCOCC1)Cn1c-2c(C2CCCCC2)c2ccc(C(=O)NS(=O)(=O)N(C)C)cc21 (stereo not shown) | 4.58 to 500 | 4.58 to 500 |  | 
COc1ccc2c(c1)C=C(c1ncccc1N(C)C)Cn1c-2c(C2CCCCC2)c2ccc(C(=O)NS(=O)(=O)N(C)C)cc21 | 4.58 to 500 | 4.58 to 500 |  | 
COc1ccc2c(c1)C=C(c1ncccc1C(=O)N1CCOCC1)Cn1c-2c(C2CCCCC2)c2ccc(C(=O)O)cc21 | 4.58 to 500 | 4.58 to 500 |  | 
COc1ccc2c(c1)CC(c1cc(C(=O)N3CCOCC3)ccn1)Cn1c-2c(C2CCCCC2)c2ccc(C(=O)NS(=O)(=O)N(C)C)cc21 (stereo not shown) | 4.58 to 500 | 4.58 to 500 |  | 
COc1ccc2c(c1)C=C(c1ccccc1C(F)(F)F)Cn1c-2c(C2CCCCC2)c2ccc(C(=O)NS(=O)(=O)C(C)C)cc21 | > 500 | 4.58 to 500 |  | 
